≈ marks a conversion by molar mass, not a printed value. Like-named read-outs stand apart in the source and are kept apart here.
What was measured:
[1] = Solubility in biological buffer solutions; type: physicochemical
Procedure: Levels of dissolved compound/form were analysed by HPLC, with the following conditions: • Column: Chromolith RP-18e 100-3 mm • Solvent A: water/formic acid (999:1; v/v) • Solvent B: acetonitrile/formic acid (999:1; v/v) • Injection volume: 5 μL • Column temperature: 37° C. • HPLC-Gradient: […]

[2] = biological target: T1, human phosphodiesterase-4A1A (Homo sapiens, UniProt P27815); assay: PDE4A1A assay (Cerep); type: biochemical
T1 construct: purchased Cerep 4074; host or cells: Sf9 cells
T1 sequence (P27815 1-647 isoform P27815-4): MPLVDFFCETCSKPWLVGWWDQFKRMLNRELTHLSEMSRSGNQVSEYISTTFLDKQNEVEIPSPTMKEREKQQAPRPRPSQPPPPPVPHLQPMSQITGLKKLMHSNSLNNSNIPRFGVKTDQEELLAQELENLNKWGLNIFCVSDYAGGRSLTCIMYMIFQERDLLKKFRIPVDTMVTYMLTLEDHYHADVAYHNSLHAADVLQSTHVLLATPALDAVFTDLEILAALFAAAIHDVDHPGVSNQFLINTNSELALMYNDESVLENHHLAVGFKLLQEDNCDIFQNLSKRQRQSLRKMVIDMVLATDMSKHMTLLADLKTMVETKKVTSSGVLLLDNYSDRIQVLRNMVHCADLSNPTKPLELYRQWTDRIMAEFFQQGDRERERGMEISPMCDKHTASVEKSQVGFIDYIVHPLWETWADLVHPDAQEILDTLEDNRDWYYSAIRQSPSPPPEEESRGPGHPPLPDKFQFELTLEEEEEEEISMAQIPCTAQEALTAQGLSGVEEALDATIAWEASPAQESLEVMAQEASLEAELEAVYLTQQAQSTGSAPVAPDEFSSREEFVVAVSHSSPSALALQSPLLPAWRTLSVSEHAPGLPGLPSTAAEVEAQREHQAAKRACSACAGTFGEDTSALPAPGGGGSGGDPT
Procedure: A commercially available assay of Cerep was used (Catalog ref. 4074; SOP no 1C1056), which is designed to evaluate the effects of compounds on the activity of the human phosphodiesterase-4A1A quantified by measuring the formation of 5′AMP from cAMP using a human recombinant enzyme expressed in Sf9 cells.
The test compound, reference compound or water (control) are added to a buffer containing 40 mM Tris/HCl (pH 7.4) and 8 mM MgCl2, 450 nM cAMP and 0.25 μCi [^3H]cAMP.
Thereafter, the reaction is initiated by addition of the enzyme (about 10 U) and the mixture is incubated for 20 min at 22° C.
(§1) For basal control measurements, the enzyme is omitted from the reaction mixture.
(§2) Following incubation SPA beads are added.
(§3) After 30 min at 22° C. under shaking, the amount of [^3H]5′AMP is quantified with a scintillation counter (Topcount, Packard).
(§4) The results are expressed as a percent inhibition of the control enzyme activity.
The standard inhibitory reference compound is Ro 20-1724, which is tested in each experiment at several concentrations to obtain an inhibition curve from which its IC50 value is calculated.

DNA-PK protein complex = DNA-PK protein complex (Homo sapiens, UniProt P78527); assay: DNA-PK assay (HTRF); type: biochemical
Procedure: The kinase assay was performed as HTRF® based 384-well assay. In a first step DNA-PK protein complex was incubated with or without test compound for 15 min at 22° C. After addition of the STK-substrate 1-biotin (Cisbio), Mg-ATP, DNA and staurosporine the reaction mixture was incubated for 60-80 min (depending on activity of DNA-PK protein complex) at 22° C. An Echo 555 (Labcyte) was used for dispensing of compound solutions. The assay buffer consisted of 25 mM HEPES PH 7.4, 11 mM MgCl2, 80 mM KCl, 0.45 mM EDTA, and 0.5 mM EGTA, and contained 1 mM dithiothreitol (DTT), 0.17% BSA, and 0.01% Tween® 20. The pharmacologically relevant volume was 5 μl. The final concentrations in the assay during incubation of the reaction mixture were 50-100 ng/well DNA-PK protein complex (depending on activity of DNA-PK protein complex), 1 μM STK-substrate 1-biotin, 10 μM Mg-ATP, 80 ng/well DNA from calf thymus, and 1 μM staurosporine. The enzymatic reaction was stopped by addition of EDTA. The generation of phosphorylated STK-substrate 1-biotin as result of the DNA-PK mediated reaction was detected via a specific anti-phospho STK-antibody (Cisbio) labeled with Europium (Eu) as donor and streptavidin labeled with XL665 (Cisbio) as acceptor allowing FRET. For this purpose, 4 μl of antibody- and streptavidin-containing stop solution (12.5 mM HEPES pH 8.0, 125 mM EDTA, 30 mM sodium chloride, 300 mM potassium fluoride, 0.006% Tween-20, 0.005% Brij® 35, 0.179 nM anti-phospho-STK antibody, 160 nM Streptavidin-XL665) were added to the reaction mixture. Following signal development for 1 h the plates were analyzed on a Rubystar or Pherastar microplate reader (BMG Labtech). The amount of phosphorylated substrate was directly proportional to the ratio of fluorescence units (excitation wavelength 337 nm) at the emission wavelengths 665 nm (Phosphopeptide-sensitive wavelength/emission of XL665) to the units at 620 nm (reference wavelength Europium). IC50-values were calculated using Genedata Screener® software. […]

[3] = tested on: pCHK1 (Cellular mechanistic ATR, HCT-116); assay: pCHK1 cellular assay; type: cell-based, human
[4] = biological target: human phosphodiesterase-2A1 (Homo sapiens, UniProt O00408); assay: PDE2A1 assay (Cerep); type: biochemical
Procedure: A commercially available assay was used (Cerep, catalog ref. 4071, SOP no 1C1054), which is designed to evaluate the effects of compounds on the activity of the human phosphodiesterase-2A1 quantified by measuring the formation of 5′AMP from cAMP using a human recombinant enzyme expressed in Sf9 cells.
The test compound, reference compound or water (control) are added to a buffer containing 40 mM Tris/HCl (pH 7.4), 8 mM MgCl2 and 1.7 mM EGTA/NaOH, 1.8 μM cAMP and 1 μCi [^3H]cAMP.
Thereafter, the reaction is initiated by addition of the enzyme (about 2.5 U) and the mixture is incubated for 20 min at 22° C.
as §1, §2, §3, §4
The standard inhibitory reference compound is EHNA (erythro-9-(2-hydroxy-3-nonyl) adenine), which is tested in each experiment at several concentrations to obtain an inhibition curve from which its IC50 value is calculated.

[5] = FaSSIF, pH 6.5, fassif, FaSSiF, pH 6.5, read-out: Solubility FaSSiF, pH 6.5
[6] = FeSSIF, pH 5, fessif, FeSSiF, pH 5.0, read-out: Solubility FeSSiF, pH 5.0
[7] = PBS, pH 7.4, aqueous buffer, PBS, pH 7.4, read-out: Solubility PBS, pH 7.4
[8] = Homo sapiens, HCT-116, HCT-116 as printed in the table

| Solubility FaSSiF, pH 6.5 ([1]; FaSSiF, pH 6.5) | Solubility FeSSiF, pH 5.0 ([1]; FeSSiF, pH 5.0) | Solubility PBS, pH 7.4 ([1]; PBS, pH 7.4) | IC50 [2] | IC50 (DNA-PK protein complex) | IC50 ([3]; HCT-116) | IC50 [4] | solubility [1, 5] | solubility [1, 6] | solubility [1, 7] | IC50 [3, 8] | SMILES |
| --- | --- | --- | --- | --- | --- | --- | --- | --- | --- | --- | --- |
| 216 μg/ml | ~800 μg/ml | ~100 μg/ml | 930 nM | 1290 nM | > 30000 nM | 3900 nM |  |  |  |  | COc1cc2ncc3c(c2cc1-c1cn(C)nc1C)n(-c1c(F)cncc1OC)c(=O)n3C (single isomer, unassigned) [Compound 2, 8-(1,3-Dimethyl-1H-pyrazol-4-yl)-1-(Ra)-(3-fluoro-5-methoxy-pyridin-4-yl)-7-methoxy-3-methyl-1,3-dihydro-imidazo[4,5-c]quinolin-2-one] |
|  |  |  | 1100 nM | 980 nM |  | 1400 nM | 52 µg/mL (≈ 116 µM) | 201 µg/mL (≈ 448 µM) | 19 µg/mL (≈ 42.4 µM) | 7900 nM | COc1cc2ncc3c(c2cc1-c1cn(C)nc1C)n(-c1c(F)cncc1OC)c(=O)n3C [Compound Y, 8-(1,3-dimethyl-1H-pyrazol-4-yl)-1-(3-fluoro-5-methoxypyridin-4-yl)-7-methoxy-3-methyl-1,3-dihydroimidazo[4,5-c]quinolin-2-one, reference compound] |
|  |  |  | 5200 nM | 600 nM |  | 2200 nM | 242 µg/mL (≈ 540 µM) | 731 µg/mL (≈ 1630 µM) | ~100 µg/mL (≈ 223 µM) | ≥ 24000 nM | COc1cc2ncc3c(c2cc1-c1cn(C)nc1C)n(-c1c(F)cncc1OC)c(=O)n3C (single isomer, unassigned) [Compound 1, 8-(1,3-Dimethyl-1H-pyrazol-4-yl)-1-(Sa)-(3-fluoro-5-methoxy-pyridin-4-yl)-7-methoxy-3-methyl-1,3-dihydro-imidazo[4,5-c]quinolin-2-one] |

Source: US20250188080A1, “IMIDAZOLONYLQUINOLINE COMPOUNDS AND THERAPEUTIC USES THEREOF” (Merck Patent GmbH, priority 2019, published 2025)
